Experimental findings from patent publication US10913757B2, “Hydroxycinnamic derivatives, methods and uses thereof” (UNIVERSIDADE DO PORTO, priority 2016, dated 2021) are described below.

Entries after “also recorded” stand apart in the source; their conditions may differ.

Data set [1] can be described thus: DPPH radical scavenging activity (TAC assay). It counts as biochemical. To be noted: ethanol, absorbance 515 nm. An excerpt:
In an embodiment, the AntiOxCINs antioxidant ranking activity hierarchy was established by in vitro non-cell methods. The selected total antioxidant capacity (TAC) assays (DPPH, ABTS and GO) involved the spectrophotometric measurement of the radical absorbance decrease as a result of an in situ radical deactivation by an antioxidant. Compounds with higher antioxidant activity display lower IC50 values. […] This decrease was attenuated/ameliorated by the increment of the spacer length and/or the introduction of additional hydroxyl group in the aromatic ring.
The radical scavenging activity of AntiOxCINs was evaluated by means of total antioxidant capacity assays based on DPPH., ABTS.^+ and GO. radicals. All these methods involved the spectrophotometric measurement of the absorbance decrease resulting from radical (DPPH., ABTS.^+ or GO.) deactivation with an antioxidant. The results were expressed in IC50, which is defined as the minimum antioxidant concentration necessary to reduce the amount of radical by 50%. Antioxidant assays were performed in a multiplate reader (Powerwave XS Microplate Reader) of Bio-Tech instruments.
In an embodiment, the DPPH. radical scavenging activity was performed as follows: solutions of the test compounds with increasing concentrations (range between 0 μM and 500 μM) were prepared in ethanol. A DPPH′ ethanolic solution (6.85 mM) was also prepared and then diluted to reach the absorbance of 0.72±0.02 at 515 nm. Each compound solution (20 μL) was added to 180 μL of DPPH′ solution in triplicate, and the absorbance at 515 nm was recorded minutely over 45 minutes. […] Dose-response curves were established for the determination of IC50 values. Data are means±SEM of three independent experiments.
For orientation: DPPH is a stable violet radical that fades when it is reduced.

Data set [2] in a line: Iron (II) chelating properties, ferrozine assay. It counts as biochemical. The settings on record: 100 μM, EDTA=100%. The method, then:
In an embodiment, AntiOxCINs iron (II) chelating properties were evaluated by the ferrozine assay using ethylenediaminetetracetic acid (EDTA) as reference.
In an embodiment, AntiOxCINs iron chelating properties were evaluated by the spectrophotometric ferrozine method performed in a multiplate reader (Powerwave XS Microplate Reader) of Bio-Tech instruments.
In an embodiment, the AntiOxCINs iron chelating properties were evaluated as follows: in each well, a solution of the test compound (100 μM) and ammonium iron (II) sulphate in ammonium acetate (20 μM) were added, incubated for 10 min and the absorbance was read at 562 nm. Then, a freshly prepared solution of ferrozine (5 mM) was added to each well (96 μM final concentration). After a new incubation at 37° C. for 10 min period, the absorbance of [Fe(ferrozine)3]^2+ complex was measured at 562 nm. Blank wells were run using DMSO instead of the test compounds. EDTA was used as a reference. All compounds were tested at a final concentration of 100 μM. The absorbance of the first reading was subtracted to the final values to abolish any absorbance due to the test compounds. Data are means±SEM of three independent experiments and are expressed as % of Fe(II) chelation (EDTA=100%).

The subject of data set [3] is rat liver mitochondria (RLM). In words: AntiOxCINs uptake by energised rat liver mitochondria (TPP-selective electrode). It counts as in vitro ADME. To be noted: FIG. 3. How it is done: In an embodiment, and as an example, mitochondrial AntiOxCINs uptake was assessed in isolated rat liver mitochondria (RLM) in response to the membrane potential. AntiOxCINs can accumulate inside mitochondria driven by the ΔΨ (FIG. 3A). Different AntiOxCINs accumulation outlines within the mitochondrial matrix have been noticed. […] However, the linear increase of AntiOxCINs lipophilicity was not directly translated into an increase in the ratio of mitochondrial matrix accumulation (FIG. 3B). The following ranking order was attained: AntiOxCIN1<AntiOxCIN2<[…]<AntiOxCIN3 (catechol series); AntiOxCIN4<AntiOxCIN7<AntiOxCIN6 (pyrogallol series) (FIG. 3C).
(§1) In an embodiment, the evaluation of AntiOxCINs functional mitochondrial toxicity profile was performed in rat liver mitochondria (RLM). RLM were prepared by tissue homogenization followed by differential centrifugations in ice-cold buffer containing 250 mM sucrose, 10 mM HEPES (pH 7.4), 1 mM EGTA, and 0.1% fat-free bovine serum albumin. After obtaining a crude mitochondrial preparation, pellets were washed twice and resuspended in washing buffer (250 mM sucrose and 10 mM HEPES, pH 7.4). The protein concentration was determined by the biuret assay using BSA as a standard.
In an embodiment, the AntiOxCINs mitochondria uptake by energized RLM was evaluated as follows: RLM (0.5 mg protein/mL) were incubated with AntiOxCINs at 37° C. under constant stirring in 1 mL of KCl medium (120 mM KCl, 10 mM HEPES, pH 7.2 and 1 mM EGTA). Five sequential 1 μM additions of each AntiOxCINs were performed to calibrate the electrode response in the presence of rotenone (1.5 μM). Then, succinate (10 mM) was added to generate AN. Valinomicin (0.2 μg/mL) was added at the end of the assay to dissipate AN. […] The mitochondrial accumulation ratio was calculated by the disappearance of AntiOxCINs from extra- to intramitochondrial medium assuming an intramitochondrial volume of 0.5 μL/mg protein and a binding correction for the mitochondrial uptake of TPP compounds.

Data set [4] concerns mitochondrial permeability transition pore (mPTP) of RLM. The data set can be described thus: Mitochondrial permeability transition pore (mPTP) opening, mitochondrial swelling. It counts as biochemical, rat. The settings on record: 2.5, 5 and 10 μM, pre-incubated 5 min before calcium, FIG. 7A-C. How it is done: In an embodiment, the AntiOxCINs effects on mitochondrial permeability transition pore (mPTP) opening were evaluated. In general, less lipophilic AntiOxCINs had no effect on mPTP opening for all tested concentrations (FIG. 7A-C).
as §1
In an embodiment, the effect of AntiOxCINs on mitochondrial permeability transition pore opening were measured as follows: mitochondrial swelling was estimated by measuring the alterations of light scattered from a mitochondrial suspension, as monitored spectrophotometrically at 540 nm. Increasing concentrations of AntiOxCINs (2.5-10 μM) were added to the reaction medium (200 mM sucrose, 1 mM KH2PO4, 10 mM Tris (pH 7.4), 5 mM succinate and 10 μM EGTA supplemented with 1.5 μM rotenone), in the presence of RLM (1 mg), and allowed to incubate for a 5 min period before the assay. The experiments were initiated by the addition of a suitable concentration of Ca^2+ (15-50 μM), titrated every day. […] The reaction was stirred continuously and the temperature maintained at 37° C. Data are means±SEM of three independent experiments and are expressed as Aabsorbance at 540 nm.

Take `CS(=O)(=O)[O-].O=C(/C=C/c1ccc(O)c(O)c1)NCCCCCC[P+](c1ccccc1)(c1ccccc1)c1ccccc1` [AntiOxCIN2, (E)-(6-(3-(3,4-dihydroxyphenyl)prop-2-enamido)hexyl)triphenylphosphonium methanesulfonate]: in data set [1], the IC50 (commonly the concentration at which inhibition is half-maximal) was determined as 29.5 µM. In addition, the “iron (II) chelation” value in data set [2] (FIG. 2) is given as “higher iron chelation activity than caffeic acid itself”. For the same molecule, in data set [3], the mitochondrial accumulation ratio entry was “approximately the same accumulation ratio”.

Take `CS(=O)(=O)[O-].O=C(/C=C/c1ccc(O)c(O)c1)NCCCCCCCC[P+](c1ccccc1)(c1ccccc1)c1ccccc1` [AntiOxCIN3, (E)-(8-(3-(3,4-dihydroxyphenyl)acrylamido)octyl)triphenylphosphoniummethanesulfonate]: in data set [1], inhibition was half-maximal at 28 µM (IC50). Moreover, the “effect on calcium-dependent mPTP opening” value in data set [4] is recorded as “inhibition of calcium-dependent mPTP opening”.

Molecule `CS(=O)(=O)[O-].O=C(/C=C/c1cc(O)c(O)c(O)c1)NCCCCCC[P+](c1ccccc1)(c1ccccc1)c1ccccc1` [AntiOxCIN4, (E)-(6-(3-(3,4,5-trihydroxyphenyl)prop-2-enamido)hexyl)triphenylphosphonium methanesulfonate] registered an IC50 in data set [1] of 19 µM. Moreover, in data set [2] (FIG. 2, methanesulfonate), the “iron (II) chelation” value was “higher iron chelation activity than caffeic acid itself; also recorded: remarkable iron-chelation property”. The mitochondrial accumulation ratio entry in data set [3] is “approximately the same accumulation ratio”.

In the case of `CS(=O)(=O)[O-].O=C(/C=C/c1cc(O)c(O)c(O)c1)NCCCCCCCC[P+](c1ccccc1)(c1ccccc1)c1ccccc1` [AntiOxCIN5, (E)-(8-(3-(3,4,5-trihydroxyphenyl)acrylamido)octyl)triphenylphosphonium methanesulfonate], half-maximal inhibition in data set [1] (IC50) was put at 14.7 µM. For the same molecule, in data set [4], the “effect on calcium-dependent mPTP opening” value is recorded as “inhibition of calcium-dependent mPTP opening”.

In the case of `CS(=O)(=O)[O-].O=C(/C=C/c1ccc(O)c(O)c1)NCCCCCCCCCC[P+](c1ccccc1)(c1ccccc1)c1ccccc1` [AntiOxCIN6, (E)-(10-(3-(3,4-dihydroxyphenyl)acrylamido)decyl)triphenylphosphonium methanesulfonate], the IC50 in data set [1] turned out to be 25.9 µM. The “effect on calcium-dependent mPTP opening” value in data set [4] is listed as “inhibition of calcium-dependent mPTP opening”.

Turning to `CS(=O)(=O)[O-].O=C(/C=C/c1cc(O)c(O)c(O)c1)NCCCCCCCCCC[P+](c1ccccc1)(c1ccccc1)c1ccccc1` [AntiOxCIN7, (E)-(10-(3-(3,4,5-trihydroxyphenyl)acrylamido)decyl)triphenylphosphonium methanesulfonate], the midpoint of inhibition in data set [1], the IC50, lay at 13.7 µM. In data set [3], the mitochondrial accumulation ratio result is “lower accumulation ratio”. Moreover, in data set [4], the “effect on calcium-dependent mPTP opening” value is on record as “inhibition of calcium-dependent mPTP opening”.

In data set [1], `O=C(O)/C=C/c1ccc(O)c(O)c1` [Caffeic acid, caffeic acid, reference compound] gave an IC50 of 18.1 µM. Also, the “iron (II) chelation” value in data set [2] (FIG. 2) is “able to chelate ferrous iron alike EDTA”.
